We go through 4 compounds from patent publication US9192605B2, “Compositions and methods for treating parkinson's disease” (priority 2009, dated 2015).

One data set has as its system rats. The data set is described as follows: locomotion, exploration and grooming of rats given low-dose haloperidol. In kind it is in vivo, rat.
For data set [1] the following is noted: for Freezing during “on” score / Motor Fluctuations (presence) score / Motor Fluctuations (severity) score / Rise from Chair score / ADL Speech score / Alternating Movements score / Changing position, i.e. turning in bed score / Dressing score / Dyskinesias (presence) score / Dyskinesias (severity) score / Feeding score / Gait score / Handwriting score / Hygiene score / Postural Tremor score / Rigidity score / Speech score / Swallowing score / Walking score / Rest Tremor score: 40 micrograms haloperidol/day oral, one patient; for Freezing during “on” score / Motor Fluctuations (presence) score / Motor Fluctuations (severity) score / Rise from Chair score: Baseline Time 1 score 0; for ADL Speech score / Alternating Movements score / Changing position, i.e. turning in bed score / Dressing score / Dyskinesias (presence) score / Dyskinesias (severity) score / Feeding score / Gait score / Handwriting score / Hygiene score / Postural Tremor score / Rigidity score / Speech score / Swallowing score / Walking score: Baseline Time 1 score 1; for Rest Tremor score: Baseline Time 1 score 2.

The target of data set [2] is human cloned dopamine D2 receptors (Homo sapiens, UniProt P14416). Particulars: cited from earlier work.
The conditions of data set [3]: clinical use as antipsychotic; cited from earlier work.
The target in another data set is dopamine D2 receptors (Homo sapiens, UniProt P14416). Particulars: PET with [11C]raclopride, over 24 hours, schizophrenia patients and volunteers; cited from earlier work.

Read-outs that look alike come from different tables or passages of the source.

For `O=C(CCCN1CCC(O)(c2ccc(Cl)cc2)CC1)c1ccc(F)cc1` [haloperidol], the “behaviour of the animals” value with rats (0.0025 mg/kg/day, 5 days) is “heightened locomotion, active exploration and good grooming”. The “behaviour of the animals” value with rats (0.005 mg/kg, on days 3-5 or upon stopping the haloperidol) is “spontaneously increased locomotion and well-being”. Further, the “behaviour of the animals” value with rats (haloperidol 0.03 mg/kg down to 0.0025 mg/kg) was “heightened locomotion and active exploration”. In addition, in data set [1] (Score Time 2), the “Freezing during “on” score” value is listed as 0, the “Motor Fluctuations (presence) score” value amounted to 0, the “Motor Fluctuations (severity) score” value turned out to be 0 and the “Rise from Chair score” value was 0. In addition, in data set [1] (Score Time 2), the “ADL Speech score” value is listed as 0; the “Alternating Movements score” value was determined as 0; the “Changing position, i.e. turning in bed score” value was determined as 1; the Dressing score was found to be 1. In data set [1] (Score Time 2), the “Dyskinesias (presence) score” value is given as 0, the “Dyskinesias (severity) score” value amounted to 0, the Feeding score stood at 1 and the Gait score is recorded as 0. In data set [1] (Score Time 2), the Handwriting score is 1, the Hygiene score was 1, the “Postural Tremor score” value turned out to be 1 and the Rigidity score is 2. Moreover, in data set [1] (Score Time 2), the Speech score was 0, the Swallowing score is listed as 0, the Walking score is recorded as 0 and the “Rest Tremor score” value is recorded as 2. Also, in data set [1] (Score Time 3), the “Freezing during “on” score” value is recorded as 0, the “Motor Fluctuations (presence) score” value was 0, the “Motor Fluctuations (severity) score” value amounted to 0 and the “Rise from Chair score” value stood at 0. Moreover, in data set [1] (Score Time 3), the “ADL Speech score” value is reported as 0; the “Alternating Movements score” value is recorded as 1; the “Changing position, i.e. turning in bed score” value was 1; the Dressing score is recorded as 1. For the same compound, in data set [1] (Score Time 3), the “Dyskinesias (presence) score” value was 0, the “Dyskinesias (severity) score” value was determined as 0, the Feeding score was 1 and the Gait score is reported as 1. In addition, in data set [1] (Score Time 3), the Handwriting score came out at 1, the Hygiene score was 1, the “Postural Tremor score” value was 1 and the Rigidity score was 2. In data set [1] (Score Time 3), the Speech score is listed as 0, the Swallowing score was 0, the Walking score turned out to be 0 and the “Rest Tremor score” value stood at 2. For the same compound, the “clinical observation: involuntary movements” value in data set [1] (Time 1 or Time 2, apart from resting tremor of right hand present at all times) is recorded as “No involuntary movements noted”. In addition, the overall conclusion entry in data set [1] (baseline to Time 1 and 2, most noticeable walking and overall presentation) is “A slight improvement from baseline to Time 1 and 2 on certain markers”. Besides, the “clinical observation: rigidity on palpation” value in data set [1] (elbow joint, no rigidity on left, 40 micrograms/day oral) is “Slight increase in rigidity on palpation of elbow joint on right side”. In addition, the “clinical observation: appearance, facial features” value in data set [1] (time 1 and 2 vs baseline, 40 micrograms/day oral) is recorded as “appeared brighter, less flat facial features”.
For the compound [^3H]quetiapine, the “rate of release from D2 receptors relative to [3H]haloperidol or [3H]chlorpromazine” value in data set [2] was “at least one hundred times faster”.
As to `Cc1cc2c(s1)Nc1ccccc1N=C2N1CCN(C)CC1` [olanzapine], in data set [3], the “extrapyramidal signs (EPS) in patients” value is reported as “dose-dependent incidence of extrapyramidal signs”.
With `OCCOCCN1CCN(C2=Nc3ccccc3Sc3ccccc32)CC1` [quetiapine], the “time course of human striatum D2 occupancy” value on dopamine D2 receptors is recorded as “rapidly falls off within 24 hours”. Further, in data set [3], the “extrapyramidal signs (EPS) in patients” value was “essentially no EPS occurs”.
